In patent publication US10555987B2, “GHRH agonists for the treatment of ischemic disorders” (UNIVERSITY OF MIAMI, priority 2012, dated 2020):
Non-standard residues stand in square brackets, D forms with d. Residues, ends and D or L forms follow the SMILES beside them. *: point of attachment. Desaminotyrosyl = O=C(CCc1ccc(O)cc1)*; NMeY = CN[C@@H](Cc1ccc(O)cc1)C(=O)O; Nle = CCCC[C@H](N)C(=O)O; Orn = NCCC[C@H](N)C(=O)O; Abu = CC[C@H](N)C(=O)O; Aoc = NCCCCCCCC(=O)O

Columns and labels:
GH release [1] = assay: In vivo endocrine activity, GH release after intravenous administration (Table 8); details: rat, i.v. injection
Method: In vivo tests on endocrine activity of new GHRH agonists (Intravenous administration). For in vivo tests based on intravenous administration, adult male Sprague-Dawley rats were anesthetized with pentobarbital (6 mg/100/g, b.w.), and GHRH agonists were injected 20 minutes after the injection of pentobarbital. Blood samples were taken from the jugular vein (pretreated level), immediately after hGHRH(1-29)NH2 injection (as a control) or after hGHRH analogs injection. Blood samples were taken from the jugular vein 5, 15 and 30 minutes after the injection. The blood samples were centrifuged, plasma was removed and the GH level was measured by ELISA.

GHRH receptor = target: T1, GHRH receptor (Homo sapiens, UniProt Q02643); assay: GHRH receptor binding, competition with 125I-labeled JV-1-42, human pituitary membrane homogenates (Table 7); parameters: Normal human pituitaries were purchased from the National Hormone and Peptide Program; tissue National Hormone and Peptide Program (A.F. Parlow, Harbor-UCLA Medical Center, Torrance, Calif.); host or cells: normal human pituitary, membrane fraction; details: JI-38 = 1, Table 7
T1 sequence (Q02643 23-423): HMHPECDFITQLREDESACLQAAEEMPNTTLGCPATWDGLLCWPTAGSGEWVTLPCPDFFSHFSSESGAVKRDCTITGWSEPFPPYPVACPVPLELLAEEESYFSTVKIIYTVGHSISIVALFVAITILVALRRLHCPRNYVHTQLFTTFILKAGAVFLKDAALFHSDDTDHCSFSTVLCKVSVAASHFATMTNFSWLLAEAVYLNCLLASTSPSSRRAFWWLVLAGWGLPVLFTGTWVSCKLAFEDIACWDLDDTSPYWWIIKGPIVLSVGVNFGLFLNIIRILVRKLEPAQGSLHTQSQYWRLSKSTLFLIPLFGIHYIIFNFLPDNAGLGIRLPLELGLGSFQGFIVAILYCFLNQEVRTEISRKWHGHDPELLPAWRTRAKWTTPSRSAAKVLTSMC
Text: Normal human pituitaries were purchased from the National Hormone and Peptide Program (A.F. Parlow, Los Angeles, County Harbor-UCLA Medical Center, Torrance, Calif.).

GH release [2] = assay: In vivo endocrine activity, GH release after subcutaneous administration (Table 9); details: rat, subcutaneous (s.c.) injection
Method: Subcutaneous Administration. Adult male rats were used and anesthetized with pentobarbital (6 mg/100 g, b.w.), by i.p. injection. […] Blood samples were taken from the jugular vein 5, 15 and/or 30 minutes after the injection. The blood samples were centrifuged, plasma was removed and the GH level was measured byELISA. The results are summarized in terms of potency in Table 9.

[3] = tested on: myocardial infarction (Fisher-344 rats); assay: Serial echocardiography after MI, compared to JI-38 (Example 15, Table 15); type: in vivo, rat; parameters: key to LVEDD: Left Ventricular End Diastolic Diameter / LVESD: Left Ventricular End Systolic Diameter / VD: Ventricular Diastole / VS: Ventricular Systole / EF: Ejection Fraction / FS: Fraction Shortening: ↓: downward arrow denotes lower than JI-38; ↑: upward arrow denotes greater than JI-38; =denotes same as JI-38; ⬇⬇: double arrow denotes greater effect; ⬆⬆: double arrow denotes greater effect; details: in comparison to JI-38
Method: Echocardiographic measurements were obtained at baseline, 2 days, 1, 2 and 4 weeks. Echocardiographic assessments were performed in anesthetized rats (2% isoflurane inhalation) using a Vevo-770 echocardiogram (Visual Sonics Inc., Toronto, Ontario, Canada) equipped with a 17.5-MHz transducer. Cardiac dimensions: LV end diastolic (LVEDD), end systolic (LVESD) diameters and fractional shortening (FS) were recorded from M-mode images using averaged measurements from 3 to 5 consecutive cardiac cycles according to the American Society of Echocardiography. Ejection fraction (EF) was calculated from bi-dimensional long-axis parasternal views taken through the infarcted area. All images were analyzed using Vevo 770 3.0.0 software (Visual Sonics Inc., Toronto, Ontario, Canada).
(§1) Myocardial infarction (MI) was induced by permanent ligation of the left coronary artery in female 6-month-old Fisher-344 rats. Following experimental myocardial infarction (MI), rats were randomly assigned to receive either placebo, JI-38, or one of the following new analogs of GHRH: MR-30 l(P-21301), MR-303(P-21303), MR-356(P-20356), MR-502(25502), MR-350(P-20350), MR-36 l(P-20361), MR-367(P-20367), MR-403(P-27403), MR-404(P-27404), and MR-409(P-27409) (10 rats per each group). The GHRH peptide agonists were adminsistered starting 2 hours post-surgery, 1 week, 2 week, and 4 week intervals. All treatment was given subcutaneously twice daily. Cardiac performance was assessed by serial echocardiography and hemodynamic analysis derived from pressure-volume loops as described before.
The echocardiographic experiments are shown in FIGS. 10-15 and the results are summarized in Table 15 (results were expressed in comparison to JI-38; downward arrow denotes lower than JI-38; upward arrow denotes greater than JI-38; =denotes same as JI-38; and double arrow denotes greater effect).

[4] = tested on: myocardial infarction (Fisher-344 rats); assay: Hemodynamic analysis (pressure-volume loops), body and heart weight after MI, compared to JI-38 (Example 15, Table 16); type: in vivo, rat; parameters: key to ESP (End-Systolic Pressure) / EDP (End-Diastolic Pressure) / ESV (End-Systolic Volume) / PRSW (Preload Recruitable Stroke Work) / Ees (End-systolic Elastance) / dP/dt max (peak rate of the pressure rise) / dP/dt max_EDV / dP/dt min / TAU (relaxation time constant calculated by Weiss method) / SV (Stroke Volume) / CO (Cardiac Output) / SW (Stroke Work) / EF / Ea/Ees / Ea (arterial Elastance): ↓: downward arrow denotes lower than JI-38; ↑: upward arrow denotes greater than JI-38; =denotes same as JI-38; ⬇⬇: double arrow denotes greater effect; ⬆⬆: double arrow denotes greater effect; details: rat MI model, s.c. twice daily; pressure-volume loops; expressed in comparison to JI-38
Method: Rats were anesthetized by intramuscular injection of a mixture of ketamine (100 mg/kg), xylazine (20 mg/kg) and acepromazine (10 mg/kg). A 2-F micromanometer tipped catheter (SPR-838, Millar Instruments, Houston, Tex.) was inserted into the right carotid artery and advanced retrograde into the left ventricle. Measurements were calibrated by injecting a hypertonic saline (15%) bolus to determine extra-ventricular conductance; relative volume units were converted to actual volume using the cuvette calibration method. All analyses were performed using PVAN 3.0 software (Millar Instruments, Houston, Tex.).
as §1
The hemodynamic studies are shown in FIGS. 16-33 and the results are summarized in Table 16 (results were expressed in comparison to JI-38; downward arrow denotes lower than JI-38; upward arrow denotes greater than JI-38; =denotes same as JI-38; and double arrow denotes greater effect).

## CCCC[C@H](NC(=O)[C@@H](NC(=O)[C@H](CC(=O)O)NC(=O)[C@H](CCC(N)=O)NC(=O)[C@H](CC(C)C)NC(=O)[C@H](CC(C)C)NC(=O)[C@H](CCCN)NC(=O)[C@H](CCCNC(=N)N)NC(=O)[C@H](C)NC(=O)[C@H](CO)NC(=O)[C@H](CC(C)C)NC(=O)[C@H](CCC(N)=O)NC(=O)[C@H](CC)NC(=O)[C@H](CC(C)C)NC(=O)[C@@H](NC(=O)[C@H](CCCN)NC(=O)[C@H](CCCNC(=N)N)NC(=O)[C@H](Cc1ccc(O)cc1)NC(=O)[C@H](CO)NC(=O)[C@H](CC(N)=O)NC(=O)[C@@H](NC(=O)[C@H](Cc1ccccc1)NC(=O)[C@@H](NC(=O)[C@H](C)NC(=O)[C@H](CC(=O)O)NC(=O)[C@@H](C)NC(=O)CCc1ccc(O)cc1)[C@@H](C)CC)[C@@H](C)O)C(C)C)[C@@H](C)CC)C(=O)N[C@@H](CC(=O)O)C(=O)N[C@@H](CCCNC(=N)N)C(=O)NCCCCCCCC(N)=O [Peptide P-21300, [Dat^1, D-Ala^2, Orn^12, Abu^15, Orn^21, Nle^27, Asp^28, Amc^30]hGHRH(1-30)NH2] (Desaminotyrosyl-[dA]DAIFTNSYR[Orn]VL[Abu]QLSAR[Orn]LLQDI[Nle]DR[Aoc]-NH2)
GH release [1]; 5 min after
  GH releasing potency in vivo relative to JI-38 (=1): 0.39
GH release [1]; 15 min after
  GH releasing potency in vivo relative to JI-38 (=1): 0.51
GH release [1]; 30 min after
  GH releasing potency in vivo relative to JI-38 (=1): 0.81
GHRH receptor
  Relative affinity (Binding potency) vs JI-38: 1.20

## CCCC[C@H](NC(=O)[C@@H](NC(=O)[C@H](CC(=O)O)NC(=O)[C@H](CCC(N)=O)NC(=O)[C@H](CC(C)C)NC(=O)[C@H](CC(C)C)NC(=O)[C@H](CCCN)NC(=O)[C@H](CCCNC(=N)N)NC(=O)[C@H](C)NC(=O)[C@H](CO)NC(=O)[C@H](CC(C)C)NC(=O)[C@H](CCC(N)=O)NC(=O)[C@H](CC)NC(=O)[C@H](CC(C)C)NC(=O)[C@@H](NC(=O)[C@H](CCCN)NC(=O)[C@H](CCCNC(=N)N)NC(=O)[C@H](Cc1ccc(O)cc1)NC(=O)[C@H](CO)NC(=O)[C@H](CC(N)=O)NC(=O)[C@@H](NC(=O)[C@H](Cc1ccccc1)NC(=O)[C@@H](NC(=O)[C@H](C)NC(=O)[C@H](CC(=O)O)NC(=O)[C@H](C)NC(=O)[C@H](Cc1ccc(O)cc1)NC)[C@@H](C)CC)[C@@H](C)O)C(C)C)[C@@H](C)CC)C(=O)N[C@@H](CC(=O)O)C(=O)N[C@@H](CCCNC(=N)N)C(=O)NCCCCCCCC(N)=O [Peptide P-21301, [N—Me-Tyr^1, Orn^12, Abu^15, Orn^21, Nle^27, Asp^28, Amc^30]hGHRH(1-30)NH2] (H-[NMeY]ADAIFTNSYR[Orn]VL[Abu]QLSAR[Orn]LLQDI[Nle]DR[Aoc]-NH2)
GH release [1]; 5 min after
  GH releasing potency in vivo relative to JI-38 (=1): 0.79
GH release [1]; 15 min after
  GH releasing potency in vivo relative to JI-38 (=1): 0.92
GH release [1]; 30 min after
  GH releasing potency in vivo relative to JI-38 (=1): 1.00
GH release [2]; 15 min after
  GH releasing potency relative to JI-38 (=1): 0.41
GH release [2]; 30 min after
  GH releasing potency relative to JI-38 (=1): 0.74
[3]
  EF: Ejection Fraction: ↓
  FS: Fraction Shortening: =
  LVEDD: Left Ventricular End Diastolic Diameter: ↑
  LVESD: Left Ventricular End Systolic Diameter: ↑
  VD: Ventricular Diastole: ↑
  VS: Ventricular Systole: ↑
[4]
  CO (Cardiac Output): =
  EDP (End-Diastolic Pressure): ↑
  EF: ↓
  ESP (End-Systolic Pressure): ↓
  ESV (End-Systolic Volume): ↑
  Ea (arterial Elastance): =
  Ea/Ees: ↑
  Ees (End-systolic Elastance): =
  PRSW (Preload Recruitable Stroke Work): =
  SV (Stroke Volume): =
  SW (Stroke Work): ↓
  TAU (relaxation time constant calculated by Weiss method): =
  dP/dt max (peak rate of the pressure rise): ↓
  dP/dt max_EDV: ↓
  dP/dt min: =
GHRH receptor
  Relative affinity (Binding potency) vs JI-38: 1.45
